From US11053236B2, “Substituted isoselenazolone anti-infective, anti-inflammatory, anti-cancer, cytoprotective, neuroprotective, and anti-oxidant agents” (priority 2016, dated 2021) come the findings set out here.

The MIC50 is the lowest concentration that inhibits either 50% of growth or 50% of the strains tested, depending on the study. Low values mean higher susceptibility, high ones lower susceptibility. As usually defined, the remaining activity is the share of the control activity or signal that is left under treatment. The term melting point denotes the temperature of the solid-liquid transition. In general, IC50 refers to the concentration that gives 50% inhibition.

The test system of series [1] is Mycobacterium tuberculosis H37Rv. As to the kind of experiment: Minimum inhibitory concentration for Mycobacterium tuberculosis H37Rv strain (Table A). To be noted: for MIC / MIC50: Mycobacterium tuberculosis, Strain Mtb H37Rv. The series is classed as cell-based.
Another series relates to Mtb H37Rv. As to the kind of experiment: microbe, parasite or virus in culture. The format is cell-based. As to conditions: Mycobacterium tuberculosis, MABA.
The target of the next series is Mtb Ag85C (Mycobacterium tuberculosis, UniProt P9WQN9). Description: Fluorometric resorufin butyrate/trehalose assay of Mtb Ag85C activity. As to conditions: for remaining activity at 5 µM: 5 μM compound, 40 min of incubation, normalized to control without inhibitor, read-out: Percent of Mtb Ag85C activity remaining. The format is biochemical.
For series [2], the system named is MRHF cells treated with TcdB and TcdA. Description: Cytotoxicity assay: inhibition of toxin-induced cell rounding. The format is cell-based, human. To be noted: 0.05 mL of 40 μM compound mixed with 0.05 mL TcdB and TcdA solution, 30 min; MRHF cells 2 h. The protocol: Cytotoxicity data was collected using a qualitative assay designed by Quidel to detect TcdB and TcdA presence in patients' stool samples. A solution containing TcdB and TcdA (0.05 mL) was mixed with 0.05 mL of a 40 μM solution of compounds of example 1-15 individually. These solutions were then incubated together for thirty minutes at room temperature. Then the 0.1 ml solutions were used to treat MRHF cells in a twenty four well plate. The cells were then incubated at thirty degrees Celsius under CO2 for two hours. Then, the cells were imaged using a 20× objective on an inverted microscope. […] Thus, compound 506o provides cytoprotection against Clostridium difficile toxins TcdB and TcdA.

The target in another series is Ag85C (Mycobacterium tuberculosis, UniProt P9WQN9). Description: Activity of Ag85C modified by compounds over time (FIGS. 6A-6B). The series is classed as biochemical. The text has this: FIGS. 6A-6B: Activity of Ag85C modified by compounds 506e (FIG. 6A) and 506f (FIG. 6B) over time.
FIGS. 6A-6B show the activity of Ag85C modified by compounds 506e and 506f over time.

Each structure is given as a SMILES string. In brackets after ≈: the same amount, converted by molar mass. A value given as a limit tells only on which side of the number the result lay.

Chain of Mtb Ag85C (P9WQN9 46-340 limits assumed): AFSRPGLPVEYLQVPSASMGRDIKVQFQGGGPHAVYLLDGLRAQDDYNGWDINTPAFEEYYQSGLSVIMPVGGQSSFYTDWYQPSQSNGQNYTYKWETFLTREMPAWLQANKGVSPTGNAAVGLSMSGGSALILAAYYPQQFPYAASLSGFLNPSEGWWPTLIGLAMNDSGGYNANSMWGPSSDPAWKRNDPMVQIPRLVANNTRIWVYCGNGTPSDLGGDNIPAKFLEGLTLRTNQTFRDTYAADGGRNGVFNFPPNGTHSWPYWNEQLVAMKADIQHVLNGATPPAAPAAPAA
Chain of Ag85C (P9WQN9 46-340): as the sequence (P9WQN9 46-340 limits assumed) above

In turn, `COc1ccccc1Cn1[se]c2ccccc2c1=O` [Compound 506c, 2-(2-methoxybenzyl)benzo[d][1,2]selenazol-3(2H)-one] had a melting point of 169 to 170 °C. For the same compound, in series [1], the “MIC values against Mycobacterium tuberculosis compared with ebselen” value was “lower than ebselen”, the MIC was 12.5 µg/mL (≈ 39.3 µM) and the MIC50 turned out to be 10.4 µg/mL (≈ 32.6 µM). The compound also displayed an MIC with Mtb H37Rv of 12.5 µg/mL (≈ 39.3 µM). Further, the remaining activity at 5 µM at Mtb Ag85C stood at 36%.

For the compound `O=c1c2ccccc2[se]n1-c1ccccc1` [Ebselen, 2-phenyl-1,2-benzisoselenazol-3(2H)-one, reference compound], in series [1], the MIC was 12.5 µg/mL (≈ 45.6 µM) and the MIC50 was 9.59 µg/mL (≈ 35 µM). This compound also yielded an MIC against Mtb H37Rv of 12.5 µg/mL (≈ 45.6 µM). Besides, the remaining activity at 5 µM at Mtb Ag85C is 17%. Also, the “Inhibition of cell rounding (cell appearance)” value in series [2] is given as “maintained their string-like appearance”.

Consider `O=c1c2ccccc2[se]n1Cc1ccccc1` [Compound 506d, 2-benzylbenzo[d][1,2]selenazol-3(2H)-one], for which, in series [1], the MIC was 25 µg/mL (≈ 86.7 µM) and the MIC50 came out at 15 µg/mL (≈ 52.2 µM).

The compound `O=c1c2ccccc2[se]n1C1CCCC1` [Compound 506l, 2-Cyclopentylbenzo[d][1,2]selenazol-3(2H)-one] yielded a melting point of 119 to 120 °C. Also, on Mtb Ag85C, the remaining activity at 5 µM stood at 40%.

Take `COc1ccc(Cn2[se]c3ccccc3c2=O)cc1` [Compound 506a, 2-(4-methoxybenzyl)benzo[d][1,2]selenazol-3(2H)-one]: in series [1], the MIC turned out to be 25 µg/mL (≈ 78.6 µM) and the MIC50 was 18.3 µg/mL (≈ 57.6 µM).

For `O=C(CCCCC1SC[C@@H]2NC(=O)N[C@H]12)NCCOCCOCCOCCNC(=O)CCC(=O)N1Cc2ccccc2-c2nnn(-c3ccc(-n4[se]c5ccccc5c4=O)cc3)c2-c2ccccc21` (stereo partly drawn) [Compound 210, N-(13,16-dioxo-16-(3-(4-(3-oxobenzo[d][1,2]selenazol-2(3H)-yl)phenyl)-3,9-dihydro-8H-dibenzo[b,f][1,2,3]triazolo[4,5-d]azocin-8-yl)-3,6,9-trioxa-12-azahexadecyl)-5-((3aS,6aR)-2-oxohexahydro-1H-thieno[3,4-d]imidazol-4-yl)pentanamide], the MIC with Mtb H37Rv is at least 50 µg/mL. Moreover, the remaining activity at 5 µM at Mtb Ag85C amounted to 61%.

In the case of `O=c1c2ccccc2[se]n1CC1CCCCC1` [Compound 506f, 2-(cyclohexylmethyl)benzo[d][1,2]selenazol-3(2H)-one], in series [1], the MIC worked out at 50 µg/mL (≈ 170 µM) and the MIC50 was found to be 36.2 µg/mL (≈ 123 µM). Besides, the MIC in the series on Mtb H37Rv was at least 50 µg/mL. Further, the remaining activity at 5 µM at Mtb Ag85C was 30%. For the same compound, on Ag85C, the “Activity of Ag85C modified by compound over time” value is listed as “decrease in the activity of Ag85C”.

In the case of `O=c1c2ccccc2[se]n1C1CCCCC1` [Compound 506m, 2-Cyclohexylbenzo[d][1,2]selenazol-3(2H)-one], the remaining activity at 5 µM at Mtb Ag85C was 44%.

As for `CC(C)Cn1[se]c2ccccc2c1=O`, the melting point was 114 to 116 °C.

As for `CC(C)(C)n1[se]c2ccccc2c1=O`, the melting point lay in the range of 137 to 139 °C.

In series [1], `COc1ccc(-n2[se]c3ccccc3c2=O)cc1` [Compound 506b, 2-(4-methoxyphenyl)benzo[d][1,2]selenazol-3(2H)-one] had an MIC of 25 µg/mL (≈ 82.2 µM) and an MIC50 of 19.3 µg/mL (≈ 63.4 µM).

For the compound `O=c1c2ccccc2[se]n1-c1ccccn1` [Compound 506o, 2-(Pyridin-2-yl)benzo[d][1,2]selenazol-3(2H)-one], the “Inhibition of cell rounding (cell appearance)” value in series [2] was “more intermediate phenotype”.

Turning to `C=CCn1[se]c2ccccc2c1=O` [Compound 506e, 2-allylbenzo[d][1,2]selenazol-3(2H)-one], in series [1], the “MIC values against Mycobacterium tuberculosis compared with ebselen” value was “lower than ebselen”, the MIC stood at 12.5 µg/mL (≈ 52.5 µM) and the MIC50 is 10.4 µg/mL (≈ 43.5 µM). Besides, the MIC in the series with Mtb H37Rv came out at 12.5 µg/mL (≈ 52.5 µM). For the same compound, the remaining activity at 5 µM at Mtb Ag85C is 15%. Besides, the IC50 at Mtb Ag85C (15 min of incubation, read-out: Apparent IC50 (appIC50) against Mtb Ag85C) is 8.8 µM. In addition, at Ag85C, the “Activity of Ag85C modified by compound over time” value is on record as “decrease in the activity of Ag85C”.

As for `O=c1c2ccccc2[se]n1C12CC3CC(CC(C3)C1)C2`, the melting point fell in the range of 215 to 217 °C.

On to `[N-]=[N+]=Nc1ccc(NC(=O)c2ccccc2[Se]C#Cc2ccccc2)cc1` [Compound 208, N-(4-Azidophenyl)-2-((phenylethynyl)selanyl)-benzamide], for which the MIC in the series with Mtb H37Rv is at least 50 µg/mL.

The compound `[N-]=[N+]=Nc1ccc(-n2[se]c3ccccc3c2=O)cc1` showed a melting point of 169 to 170 °C.
